Structures are written as SMILES.

As a reminder, the IC50 is the concentration that gives 50% inhibition.

Assay [1] relates to SK-BR-3 human breast carcinoma overexpressing erbB-2 and erbB-3. In words: Growth inhibition assay (antiproliferative), SK-BR-3. The format is cell-based. As to conditions: 72 h, SK-BR-3 cells, 3 days.
In assay [2] the test system is erbB-2, 3, 4 autophosphorylation in SK-BR-3 breast tumor cells. In words: Inhibition of conditioned media-induced autophosphorylation in SK-BR-3 breast tumor cells. The settings on record: SK-BR-3 cells, read-out: SKBR-3 IC50. The assay is classed as cell-based, human. As to the method:
Cells were grown to 100% confluency in 100 mm Petrie dishes (Corning). After the cells were treated for 5 minutes with either EGF (epidermal growth factor), PDGF, or bFGF (basic fibroblast growth factor) (20 ng/ml) or 1 ml of conditioned media from MDA-MB-231 cells, the media was removed and the monolayer scraped into 1 ml of ice cold lysis buffer (50 mM Hepes, pH 7.5, 150 mM NaCl, 10% glycerol, 1% triton X-100, 1 mM EDTA, 1 mM EGTA, 10 mM sodium pyrophosphate, 30 mM p-nitrophenyl phosphate, 1 mM orthovanadate, 50 mM sodium fluoride, 1 mM phenylmethylsulfonylfluoride, 10 μg/ml of aprotinin, and 10 μg/ml of leupeptin). The lysate was transferred to a microfuge tube (small centrifuge that holds 1-2 ml plastic centrifuge tubes), allowed to sit on ice 15 minutes and centrifuged 5 minutes at 10,000×g. The supernatant was transferred to a clean microfuge tube and 5 μg of antibody was added to designated samples. The tubes were rotated for 2 hours at 4° C. after which 25 μl of protein A sepharose was added and then rotation continued for at least 2 more hours. The protein A separose was washed 5 times with 50 mM Hepes, pH 7.5, 150 mM NaCl, 10% glycerol and 0.02% sodium azide. The precipitates were resuspended with 30 μl of Laemlli buffer (Laemmli, NATURE, […], pp. 680-685, 1970), heated to 100° C. for 5 minutes and centrifuged to obtain the supernatant. Whole cell extracts were made by scraping cells grown in the wells of 6 well plates into 0.2 ml of boiling Laemmli buffer. The extract were transferred to a microfuge tube and heated to 100° C. for 5 minutes. The entire supernatant from the immunoprecipitation or 35 μl of the whole cell extract was loaded onto a polyacrylamide gel (4-20%) and electrophoresis carried out by the method of Laemlli (Laemmli, 1970). Proteins in the gel were electrophoretically transferred to nitrocellulose and the membrane was washed once in 10 mM Tris buffer, pH 7.2, 150 mM NaCl, 0.01% Azide (TNA) and blocked overnight in TNA containing 5% bovine serum albumin and 1% ovalbumin (blocking buffer). The membrane was blotted for 2 hours with the primary antibody (1 μg/ml in blocking buffer) and then washed 2 times sequentially in TNA, TNA containing 0.05% Tween-20 and 0.05% Nonidet P-40 (commercially available detergent) and TNA. The membranes were then incubated for 2 hours in blocking buffer containing 0.1 μCi/ml of [^125I] protein A and then washed again as above. After the blots were dry they were loaded into a film cassette and exposed to X-AR X-ray film for 1-7 days. Protein A is a bacterial protein that specifically bonds certain IgG subtypes and is useful in binding to and isolating antibody-antigen complexes.
Inhibition of EGF-Induced Autophosphorylation in A431 Epidermoid Carcinoma Cells and Conditioned Media-Induced Autophosphorylation in SK-BR-3 Breast Tumor Cells by Compounds of the Current Invention

The test system of assay [3] is B104-1-1 NIH-3T3 mouse fibroblasts transfected by the neu oncogene. Description: Growth inhibition assay (antiproliferative), B104-1-1. The format is cell-based. As to conditions: 72 h, B104-1-1 cells, 3 days. The source says: Antiproliferative Properties of Tyrosine Kinase Inhibitors IC50 (nM)
B104-1-1—NIH-3T3 mouse fibroblasts transfected by the neu oncogene: Stern et al., Science, 234, pp. 321-324 (1987);

Turning to `Brc1cccc(Nc2ncnc3cc4[nH]cnc4cc23)c1` [Example 6, 4-(3-Bromoanilino)imidazolo[4,5-g]quinazoline], the values for the IC50 in assay [1], in assay [2] and in assay [3] were 200 nM, 55 nM and 3200 nM, respectively.

For `Nc1ccc2sc3c(Nc4cccc(Br)c4)ncnc3c2c1` [Example 17, 8-Amino-4-(3-bromoanilino)benzo[b]thieno[3,2-d]pyrimidine], the values for the IC50 in assay [2] and in assay [3] were 23 nM and 2900 nM, respectively.

(Values after patent US6596726B1, “Tricyclic compounds capable of inhibiting tyrosine kinases of the epidermal growth factor receptor family” (Warner Lambert Company, priority 1994, dated 2003).)
